Laboratory results published in paper PMC4203866, “Identification of plant-derived natural products as potential inhibitors of the Mycobacterium tuberculosis proteasome” (BMC Complementary and Alternative Medicine, 2014).
Counter-ions that a name gives are not always drawn.

Biological target: T1, Mtb proteasome (Mycobacterium tuberculosis, UniProt P9WHT9)
T1 construct: Proteasome activity of the supernatants was assessed; endogenous in cells; host or cells: Mycobacterium tuberculosis H37Ra (crude lysate supernatant)
T1 sequence (P9WHT9 58-291): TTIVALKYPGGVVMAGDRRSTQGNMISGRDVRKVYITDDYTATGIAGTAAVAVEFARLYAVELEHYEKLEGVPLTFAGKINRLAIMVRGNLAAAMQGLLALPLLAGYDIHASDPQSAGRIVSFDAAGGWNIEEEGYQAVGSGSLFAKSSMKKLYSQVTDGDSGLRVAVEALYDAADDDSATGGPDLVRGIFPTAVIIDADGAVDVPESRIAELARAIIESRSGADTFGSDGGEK
T1 sequence (P9WHU1 whole entry partner): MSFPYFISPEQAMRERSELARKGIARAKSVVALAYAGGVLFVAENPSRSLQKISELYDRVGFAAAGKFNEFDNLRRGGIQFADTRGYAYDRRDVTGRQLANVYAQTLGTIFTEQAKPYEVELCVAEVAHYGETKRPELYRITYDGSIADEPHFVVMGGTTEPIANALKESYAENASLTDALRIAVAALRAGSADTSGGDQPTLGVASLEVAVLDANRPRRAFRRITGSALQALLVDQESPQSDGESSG
Assay: biochemical
Conditions: not given

Compared with `CC(C)(O)[C@H]1CC[C@@](C)([C@H]2[C@@H](O)C[C@@]3(C)[C@@H]4C[C@H](O[C@@H]5O[C@H](CO)[C@@H](O)[C@H](O)[C@H]5O)[C@H]5C(C)(C)[C@@H](O[C@@H]6OC[C@@H](O)[C@H](O)[C@H]6O)CC[C@@]56C[C@@]46CC[C@]23C)O1` [astragaloside A], `COc1cc(C)c(C(=O)Oc2cc(C)c(C(=O)O)c(O)c2C)c(OC)c1C` [diffractic acid] is lower in “IA: inhibitory activity of Mtb proteasome” value (shortened to “IA: inhibitory activity”): 23.59% for the first, 0.00% for the second.

Compared with `C=C[C@H]1[C@H](O[C@@H]2O[C@H](CO)[C@@H](O)[C@H](O)[C@H]2O)OC=C2C(=O)OCC[C@]21O` [swertiamain], `COc1cc2c(c(OC)c1OC)-c1c(cc(OC)c(OC)c1OC)C[C@H](C)[C@H](C)C2` [deoxyschizandrin] is higher in “IA: inhibitory activity” value: 14.39% for the first, 23.86% for the second.

`COc1ccc2cc1Oc1ccc(cc1)C[C@H]1c3cc(c(OC)cc3CCN1C)Oc1c(O)c(OC)cc3c1[C@H](C2)N(C)CC3` [hanfangchin B] and madecassoside are the same in “IA: inhibitory activity” value: 0.00% for the first, 0.00% for the second.

`COc1cc2ccc(=O)oc2c(O[C@@H]2O[C@H](CO)[C@@H](O)[C@H](O)[C@H]2O)c1O` [fraxin] and silmyarin are the same in “IA: inhibitory activity” value: 0.00% for the first, 0.00% for the second.

dipsacoside and `COc1ccc2cc1Oc1ccc(cc1)C[C@H]1c3cc(c(OC)cc3CCN1C)Oc1c(OC)c(OC)cc3c1[C@H](C2)N(C)CC3` [hanfangchin A] are the same in “IA: inhibitory activity” value: 0.00% for the first, 0.00% for the second.

Compared with `C=C1C(=O)O[C@@H]2C[C@@]3(C)CCC[C@H](C)C3=C[C@H]12` [alantolactone], tubeimoside A is lower in “IA: inhibitory activity” value: 32.12% for the first, 0.00% for the second.

First: C[C@H]1CC[C@@H]2N(C1)C[C@H]1[C@@H]3C[C@H]4[C@@H](C[C@H](O)[C@H]5C[C@@H](O)CC[C@@]54C)[C@@H]3CC[C@@H]1[C@]2(C)O [peimine]
Second: O=c1oc2c(O)c(O)cc3c(=O)oc4c(O)c(O)cc1c4c23 [gallogen]
The “IA: inhibitory activity” value of the first is lower: 3.05% for the first, 62.50% for the second.

First: evodine
Second: COc1ccc([C@H]2OC[C@H]3[C@@H]2CO[C@H]3c2ccc(O[C@@H]3O[C@H](CO)[C@@H](O)[C@H](O)[C@H]3O)c(OC)c2)cc1OC [forsythin]
The “IA: inhibitory activity” value of the first is higher: 31.77% for the first, 20.02% for the second.

First: O=C(O[C@@H]1Cc2c(O)cc(O)cc2O[C@@H]1c1cc(O)c(O)c(O)c1)c1cc(O)c(O)c(O)c1 [epigallocatechin gallate]
Second: C=C1C[C@@]2(O)O[C@@]3(C[C@H]2C(C)C)[C@@H](C)CC[C@@H]13 [curcumol]
The “IA: inhibitory activity” value of the first is higher: 45.21% for the first, 34.66% for the second.

First: martin hydrochloride
Second: COC(=O)c1c2c(c3ccccc3c1O)OC(C)(C)C=C2 [rubimaillin]
The “IA: inhibitory activity” value of the first is lower: 43.66% for the first, 46.37% for the second.

Going from `O=C(O)[C@H]1O[C@@H](Oc2cc3oc(-c4ccccc4)cc(=O)c3c(O)c2O)[C@H](O)[C@@H](O)[C@@H]1O` [baicalin] to `O=c1cc(-c2ccccc2)oc2cc(O)c(O)c(O)c12` [baicalein], the IC50 falls from 83.5 µM to 45.7 µM (1.8-fold). The second is the more potent here.

`O=c1c(O)c(-c2cc(O)c(O)c(O)c2)oc2cc(O)cc(O)c12` [myricetin] and `COc1c(O)cc2oc(-c3ccc(O)cc3)cc(=O)c2c1O` [hispidulin] are within 1.5-fold of each other in IC50: 55.4 µM for the first, 58.3 µM for the second.

`COc1ccc(-c2oc3c(CC=C(C)C)c(O[C@@H]4O[C@H](CO)[C@@H](O)[C@H](O)[C@H]4O)cc(O)c3c(=O)c2O[C@@H]2O[C@@H](C)[C@H](O)[C@@H](O)[C@H]2O)cc1` [icarrin, icariin] and `CC1=C(O)C(=O)C=C2C1=CC=C1[C@@]2(C)CC[C@@]2(C)[C@@H]3C[C@](C)(C(=O)O)CC[C@]3(C)CC[C@]12C` [tripterine] are within 1.5-fold of each other in IC50: 88.7 µM for the first, 114 µM for the second.

Same assay, conditions: 0.5 h, read-out: IA: inhibitory activity of Mtb proteasome

Compared with `C[C@@]12C[C@@]3(O)O[C@@H](O1)[C@]1(COC(=O)c4ccccc4)[C@H]3C[C@@]12O[C@@H]1O[C@H](CO)[C@@H](O)[C@H](O)[C@H]1O` [paeoniflorin], `OCc1ccccc1O[C@@H]1O[C@H](CO)[C@@H](O)[C@H](O)[C@H]1O` [salicin] is lower in inhibition at 200 µM: 3.05% for the first, 0% for the second.

First: COc1ccc2ccc(=O)oc2c1CC=C(C)C [osthole]
Second: CC(C)=CCOc1c2occc2cc2ccc(=O)oc12 [imperatorin]
The inhibition at 200 µM of the first is lower: 0% for the first, 15.9% for the second.

`CC(=O)O[C@H]1C(=O)[C@@]2(C)[C@H]([C@H](OC(=O)c3ccccc3)[C@]3(O)C[C@H](OC(=O)[C@H](O)[C@@H](NC(=O)c4ccccc4)c4ccccc4)C(C)=C1C3(C)C)[C@]1(OC(C)=O)CO[C@@H]1C[C@@H]2O` [paclitaxel, reference compound] and `CC(=O)OC(C)(C)CCC(=O)[C@](C)(O)[C@H]1[C@H](O)C[C@@]2(C)[C@@H]3CC=C4[C@@H](C[C@H](O)[C@@H](O)C4(C)C)[C@]3(C)C(=O)C[C@]12C` [hemslecin A] are the same in inhibition at 200 µM: 0% for the first, 0% for the second.

First: O=c1c(-c2ccc(O)cc2)coc2cc(O)cc(O)c12 [genistein]
Second: O=c1cc(-c2ccc(O)cc2)oc2cc(O)cc(O)c12 [apigenin]
The inhibition at 200 µM of the first is higher: 45.7% for the first, 0% for the second.

Compared with `C=C[C@@H]1C2=CCOC(=O)C2=CO[C@H]1O[C@@H]1O[C@H](CO)[C@@H](O)[C@H](O)[C@H]1O` [gentiopicroside], `O=c1c2cc(O)c(O)cc2oc2cc(O)c([C@@H]3O[C@H](CO)[C@@H](O)[C@H](O)[C@H]3O)c(O)c12` [mangiferin] is higher in inhibition at 200 µM: 0% for the first, 31.9% for the second.

First: O=C1CCC[C@@H]2[C@H]3CCCN4CCC[C@@H](CN12)[C@@H]34 [matrine]
Second: O=C1CCC[C@@H]2[C@H]3CCCN4CCC[C@H](CN12)[C@@H]34 [sophoridine]
The inhibition at 200 µM of the first is higher: 23.5% for the first, 11.8% for the second.

`O=C(O)[C@H]1O[C@@H](Oc2cc3oc(-c4ccccc4)cc(=O)c3c(O)c2O)[C@H](O)[C@@H](O)[C@@H]1O` [baicalin] and `O=c1cc(-c2ccccc2)oc2cc(O)c(O)c(O)c12` [baicalein] cannot be ordered by inhibition at 200 µM: > 65% for the first, > 65% for the second.

`O=c1ccc2ccccc2o1` [coumarin] and `O=c1ccc2ccc(O)c(O)c2o1` [daphnetin] are the same in inhibition at 200 µM: 0% for the first, 0% for the second.

Going from `O=C1c2cccc(O)c2C(=O)c2c(O)cccc21` [1,8-dihydroxyanthraquinone] to `O=C1c2cccc(O)c2C(=O)c2c(O)cc(CO)cc21` [aloe-emodin], the inhibition at 200 µM falls from 36.3% to 34.3%.

Going from `COc1c(O[C@@H]2O[C@H](CO)[C@@H](O)[C@H](O)[C@H]2O)cc2occ(-c3ccc(O)cc3)c(=O)c2c1O` [tectoridin] to `COc1ccc(-c2oc3c(CC=C(C)C)c(O[C@@H]4O[C@H](CO)[C@@H](O)[C@H](O)[C@H]4O)cc(O)c3c(=O)c2O[C@@H]2O[C@@H](C)[C@H](O)[C@@H](O)[C@H]2O)cc1` [icarrin, icariin], the inhibition at 200 µM rises from 0% to > 65%.

First: CC(C)=CC[C@H](O)C1=CC(=O)c2c(O)ccc(O)c2C1=O [alkannin]
Second: O=C1c2ccccc2C(=O)c2c1ccc(O)c2O [alizarin]
The inhibition at 200 µM of the first is higher: 52.4% for the first, 0% for the second.

Going from `O=C(/C=C/c1ccc(O)c(O)c1)O[C@@H]1C[C@](O)(C(=O)O)C[C@@H](O)[C@H]1O` [chlorogenic acid] to `O=c1c(O)c(-c2ccc(O)c(O)c2)oc2cc(O)cc(O)c12` [quercetin], the inhibition at 200 µM rises from 0% to > 65%.

Compared with `O=c1c(O)c(-c2cc(O)c(O)c(O)c2)oc2cc(O)cc(O)c12` [myricetin], `O=c1cc(-c2ccc(O)c(O)c2)oc2cc(O)cc(O)c12` [luteolin] is lower in inhibition at 200 µM: > 65% for the first, 0% for the second.

Compared with `COc1c(O)cc2oc(-c3ccc(O)cc3)cc(=O)c2c1O` [hispidulin], `COc1c(O)cc(O)c2c(=O)cc(-c3ccccc3)oc12` [wogonin] is lower in inhibition at 200 µM: > 65% for the first, 54% for the second.

Going from `C=C1CC[C@@H]2[C@](C)(CO)[C@H](O)CC[C@@]2(C)[C@@H]1C/C=C1/C(=O)OC[C@H]1O` [andrographolide] to `C=C1CC[C@H]2C(=C)CC[C@H]3C(=C)C(=O)O[C@@H]3[C@@H]12` [dehydrocostuslactone], the inhibition at 200 µM rises from 0% to 32.1%.

`O=C1C[C@@H]2OCC=C3CN4CC[C@]56c7ccccc7N1[C@H]5[C@H]2[C@H]3C[C@H]46` [strychnine] and `CC[C@@]1(O)C(=O)OCc2c1cc1n(c2=O)Cc2cc3ccccc3nc2-1` [camptothecin] are the same in inhibition at 200 µM: 0% for the first, 0% for the second.

Going from `COc1ccc(-c2cc(=O)c3c(O)c(OC)c(O)c(OC)c3o2)cc1` [nevadensin] to `O=c1c(-c2ccc(O)cc2)coc2cc(O)ccc12` [daidzein], the inhibition at 200 µM falls from 48% to 0%.

First: C[C@H]1[C@H](OC(=O)CCC(=O)O)O[C@@H]2O[C@@]3(C)CC[C@H]4[C@H](C)CC[C@@H]1[C@@]24OO3 [artesunate, reference compound]
Second: C[C@H]1CC[C@@]2(OC1)O[C@H]1C[C@H]3[C@@H]4CC[C@@H]5C[C@@H](O)CC[C@]5(C)[C@H]4CC[C@]3(C)[C@H]1[C@@H]2C [sarsasapogenin]
The inhibition at 200 µM of the first is higher: 13.8% for the first, 0% for the second.

`Oc1ccc(/C=C/c2cc(O)cc(O)c2)cc1` [resveratrol] and `C=CCc1ccc(O)c(-c2cc(CC=C)ccc2O)c1` [magnolol] are the same in inhibition at 200 µM: 0% for the first, 0% for the second.

`O=C(O)C1=C[C@@H](O)[C@@H](O)[C@H](O)C1` [shikimicacid] and `O[C@H]1[C@H]2c3cc4c(cc3CN3CCC(=C[C@@H]1O)[C@H]23)OCO4` [lycorine hydrochloride] are the same in inhibition at 200 µM: 0% for the first, 0% for the second.

`COc1cc2ccc(=O)oc2cc1OC` [scoparone] and `COc1ccc2cc3[n+](cc2c1OC)CCc1cc2c(cc1-3)OCO2` [berberine] are the same in inhibition at 200 µM: 0% for the first, 0% for the second.

First: Nc1ncnc2c1ncn2[C@@H]1O[C@H](CO)C[C@H]1O [cordycepin]
Second: COc1c(O)cc2c(c1O)[C@@H]1O[C@H](CO)[C@@H](O)[C@H](O)[C@H]1OC2=O [bergenin]
The inhibition at 200 µM of the first is higher: 7.77% for the first, 3.67% for the second.

First: N#C[C@H](O[C@@H]1O[C@H](CO[C@@H]2O[C@H](CO)[C@@H](O)[C@H](O)[C@H]2O)[C@@H](O)[C@H](O)[C@H]1O)c1ccccc1 [amygdalin]
Second: COC1=C[C@@H]2[C@@H]3Cc4ccc(OC)c(O)c4[C@]2(CCN3C)CC1=O [sinomenine]
The inhibition at 200 µM of the first is lower: 1.87% for the first, 3.77% for the second.

Compared with `CC1(C)O[C@H]2CC(=O)OC[C@]23[C@H]2CC[C@@]4(C)[C@H](c5ccoc5)OC(=O)[C@H]5O[C@]54[C@]2(C)C(=O)C[C@@H]13` [limonin], `CC(C)(C)[C@]1(O)CC2OC(=O)CC23C(=O)OC2OC(=O)[C@H](O)C231` (some centres unmarked) [bilobalide] is higher in inhibition at 200 µM: 1.61% for the first, 18.6% for the second.

Compared with `CC1=C(O)C(=O)C=C2C1=CC=C1[C@@]2(C)CC[C@@]2(C)[C@@H]3C[C@](C)(C(=O)O)CC[C@]3(C)CC[C@]12C` [tripterine], `COc1ccc(C(C)=O)c(O)c1` [paeonol] is lower in inhibition at 200 µM: > 65% for the first, 0% for the second.

In the case of `COc1ccc2cc1Oc1ccc(cc1)C[C@H]1c3c(cc4c(c3Oc3cc5c(cc3OC)CCN(C)[C@@H]5C2)OCO4)CCN1C` [cepharanthine], the inhibition at 200 µM is reported as 0%.
